For the assay, the target named is T1, CXCR4 (Homo sapiens, UniProt P61073).
T1 construct: CCRF-CEM cells, a human T-cell ALL line that endogenously expresses CXCR4; endogenous in cells; host or cells: CCRF-CEM (human T-cell acute lymphoblastic leukemia line)
Put plainly: Calcium flux assay, agonist mode, FLIPR (CCRF-CEM cells). The class given is cell-based. Conditions: percent of maximum response compared with SDF-1α, read-out: % Intrinsic Activity. As for the experimental part: The calcium flux assay was used to assess the test compounds' ability to activate the CXCR4 receptor in CCRF-CEM cells (human T lymphoblasts from acute lymphoblastic leukemia). […] After dye loading by incubating with Calcium-4 dye at 37° C. for 1 hour, cell plates were read at 37° C. using the Fluorescent Imaging Plate Reader (FLIPR). Receptor activation was assessed by measuring changes in fluorescent intensity after the addition of the test compounds or the reference agonist SDF-1α on the FLIPR.

Where a SMILES comes first, the peptide text is derived from it. [ ]: non-standard residue; d: D form. The star is where a group is joined. Hexadecanesulfonyl = CCCCCCCCCCCCCCCCS(=O)(=O)*

Data on 1 compound can be found in US9155795B2, “CXCR4 receptor compounds” (Anchor Therapeutics, Inc., priority 2010, dated 2015).

T1 sequence (P61073 whole entry): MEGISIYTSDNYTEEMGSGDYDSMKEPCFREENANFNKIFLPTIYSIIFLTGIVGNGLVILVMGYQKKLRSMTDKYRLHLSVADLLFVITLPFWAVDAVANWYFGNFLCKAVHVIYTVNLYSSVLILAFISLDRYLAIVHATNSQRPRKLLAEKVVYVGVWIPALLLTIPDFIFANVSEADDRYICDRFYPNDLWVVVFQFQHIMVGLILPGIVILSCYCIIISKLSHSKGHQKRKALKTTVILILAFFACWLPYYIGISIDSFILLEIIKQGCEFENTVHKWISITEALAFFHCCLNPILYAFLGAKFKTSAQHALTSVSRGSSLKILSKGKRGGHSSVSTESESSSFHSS

For `CCCCCCCCCCCCCCCCS(=O)(=O)NCC(=O)NCC(=O)N[C@@H](Cc1ccc(O)cc1)C(=O)N[C@@H](CCC(N)=O)C(=O)N[C@@H](CCCCN)C(=O)N[C@@H](CCCCN)C(=O)N[C@@H](CC(C)C)C(=O)N[C@@H](CCCNC(=N)N)C(=O)N1CCC[C@@H]1C(=O)N[C@@H](Cc1c[nH]cn1)C(=O)N[C@H](C(=O)N[C@@H](CC(=O)O)C(=O)N[C@@H](CCCCN)C(=O)N[C@@H](Cc1ccc(O)cc1)C(=O)N[C@@H](CCCNC(=N)N)C(=O)N[C@@H](CC(C)C)C(N)=O)[C@@H](C)O` [Compound 46, CH3(CH2)15SO2— GGYQKKLRpHTDKYRL-amide] (Hexadecanesulfonyl-GGYQKKLR[dP]HTDKYRL-NH2), the Emax is 107%.
